This is an account of results in patent US7736677B2 (Metaproteomics, LLC, priority 2001, dated 2010).

Marks after values point to notes of the source that are not given here.

The test system of assay [1] is adiponectin. In words: Adiponectin secretion in LPS/3T3-L1 adipocytes. To be noted: for induction of adiponectin secretion: any of the doses tested; for Concentration of maximum stimulation of adiponectin secretion: LPS-treated D5 3T3-L1 adipocytes. The assay is classed as cell-based, murine.
Assay [2] concerns adiponectin. The assay is described as follows: Adiponectin secretion from insulin-resistant 3T3-L1 adipocytes. The assay is classed as cell-based, murine.
In assay [3] the test system is IL-6. In words: IL-6 secretion from TNFα-treated 3T3-L1 adipocytes. The format is cell-based, murine. The following applies: 10 ng TNFα/ml.
In assay [4] the test system is IL-6. The assay is described as follows: IL-6 secretion in LPS/3T3-L1 adipocytes. The format is cell-based, murine. To be noted: at the dose providing maximum inhibition; for IL-6 Index: indexed to LPS control.
In assay [5] the test system is adiponectin. The assay is described as follows: Adiponectin secretion from TNFα-treated 3T3-L1 adipocytes. The format is cell-based, murine.
Procedure: For two days, the cells were allowed grow to reach confluence. […] Adiponectin Assay—The adiponectin secreted into the medium was quantified using the Mouse Adiponectin Quantikine® Immunoassay kit with no modifications (R&D Systems, Minneapolis, Minn.). […] Statistical Calculations and Interpretation—All assays were preformed in duplicate. […] Differences among the doses and test agents were determined using the Student's t-test without correction for multiple comparisons; the nominal five percent probability of a type I error was selected.
Assay [6] has as its system IL-6. In words: IL-6 secretion from insulin-resistant 3T3-L1 adipocytes. The assay is classed as cell-based, murine. The following applies: high insulin.
The next assay addresses PKBγ (Homo sapiens, UniProt Q9Y243). In words: KinaseProfiler Assay. The assay is classed as biochemical. The following applies: 5 ug/ml, read-out: effect (as % of Control).
The target of the next assay is PKCβII (Homo sapiens, UniProt P05771). The assay is described as follows: KinaseProfiler Assay. The format is biochemical. To be noted: 5 ug/ml, read-out: effect (as % of Control).
A further assay relates to db/db mice. The format is in vivo, mouse. The following applies: three consecutive days.
A further assay has as its system DBA/J mice. In words: Collagen induced rheumatoid arthritis murine model. The format is in vivo, mouse.
The mark [7] stands for this setting: at the concentration of maximum stimulation.

Sequence of PKCβII (P05771 1-673 isoform P05771-2): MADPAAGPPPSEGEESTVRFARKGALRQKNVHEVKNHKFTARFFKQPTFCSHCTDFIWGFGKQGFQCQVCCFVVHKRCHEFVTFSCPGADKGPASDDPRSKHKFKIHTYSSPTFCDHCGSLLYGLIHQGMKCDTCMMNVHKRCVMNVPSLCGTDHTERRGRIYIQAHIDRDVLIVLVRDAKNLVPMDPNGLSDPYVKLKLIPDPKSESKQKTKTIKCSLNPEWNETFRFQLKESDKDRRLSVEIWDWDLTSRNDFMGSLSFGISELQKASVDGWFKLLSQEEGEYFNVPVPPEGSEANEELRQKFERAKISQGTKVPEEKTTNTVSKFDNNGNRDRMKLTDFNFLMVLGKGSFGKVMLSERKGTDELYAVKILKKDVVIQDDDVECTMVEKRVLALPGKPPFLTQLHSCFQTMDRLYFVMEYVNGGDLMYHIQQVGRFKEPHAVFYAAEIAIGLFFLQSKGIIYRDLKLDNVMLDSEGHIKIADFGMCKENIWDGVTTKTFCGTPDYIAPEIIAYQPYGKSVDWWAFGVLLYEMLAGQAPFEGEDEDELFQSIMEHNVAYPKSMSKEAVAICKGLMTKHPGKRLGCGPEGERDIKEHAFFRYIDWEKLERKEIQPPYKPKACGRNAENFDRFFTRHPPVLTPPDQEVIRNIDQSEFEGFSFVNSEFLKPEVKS
Sequence of PKBγ (Q9Y243 whole entry): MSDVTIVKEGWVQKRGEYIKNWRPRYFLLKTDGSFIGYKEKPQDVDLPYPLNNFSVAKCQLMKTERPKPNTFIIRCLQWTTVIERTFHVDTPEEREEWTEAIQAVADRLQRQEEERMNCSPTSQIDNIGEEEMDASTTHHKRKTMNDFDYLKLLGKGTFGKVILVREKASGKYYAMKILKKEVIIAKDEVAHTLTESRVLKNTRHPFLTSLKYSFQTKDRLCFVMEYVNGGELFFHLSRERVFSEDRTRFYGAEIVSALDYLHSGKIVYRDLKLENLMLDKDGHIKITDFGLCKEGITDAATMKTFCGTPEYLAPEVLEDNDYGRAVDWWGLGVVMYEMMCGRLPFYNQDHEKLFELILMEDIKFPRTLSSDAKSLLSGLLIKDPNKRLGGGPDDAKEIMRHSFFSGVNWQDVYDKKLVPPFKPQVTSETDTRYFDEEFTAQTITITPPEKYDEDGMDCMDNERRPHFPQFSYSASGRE

Regarding `CC(=O)Oc1ccccc1C(=O)O` [Aspirin, aspirin], the “induction of adiponectin secretion” value in the assay with adiponectin [1] is given as “failed to induce adiponectin secretion”.
As to `CC(C)CCC1=C(O)C(C(=O)C(C)C)=C(O)C(CCC(C)C)(CCC(C)C)C1=O` [Hexahydro colupulone, hexahydrocolupulone], in the assay with adiponectin [2] (slope of Hofstee plots), the “Test Material at Half Maximal Secretion” value was found to be 3.2 µg/mL.
As to `COc1ccc2c(c1)c(CC(=O)O)c(C)n2C(=O)c1ccc(Cl)cc1` [Indomethacin, indomethacin], in the assay with IL-6 [3], the “IL-6 secretion in the presence of TNFα” value was “no anti-inflammatory effect”. The “% Stimulation of adiponectin secretion (maximum)” value (“% Stimulation” below) in the assay on adiponectin [1] (setting [7]) is listed as 9%.
As to `CCc1ccc(CCOc2ccc(CC3SC(=O)NC3=O)cc2)nc1` (centres unmarked) [Pioglitazone, pioglitazone], the “IL-6 Index” value in the assay with IL-6 [4] is 0.37*. Further, the “Concentration of maximum adiponectin secretion over four doses” value in the assay with adiponectin [5] (10 ng TNFα/ml, Example 17) was determined as 1.25 µg/mL. Moreover, in the assay with adiponectin [5] (1.0 μg/ml, indexed to TNFα control (Table 26)), the “Adiponectin Index, Observed” value worked out at 1.80. Moreover, in the assay with adiponectin [1], the “Concentration of maximum stimulation of adiponectin secretion” value came to 1.25 µg/mL. Besides, the “% Stimulation” value in the assay with adiponectin [1] (setting [7]) came to 12%.
`Cc1c(C)c2c(c(C)c1O)CCC(C)(COc1ccc(CC3SC(=O)NC3=O)cc1)O2` (centres unmarked) [Troglitazone, troglitazone]: in the assay on adiponectin [2] (5.0 μg/ml, ratio of adiponectin index to IL-6 index (Table 21)), the Adiponectin/IL-6 was 1.12. In addition, in the assay with adiponectin [1], the “Concentration of maximum stimulation of adiponectin secretion” value was 0.625 µg/mL. For the same compound, in the assay on adiponectin [1] (setting [7]), the “% Stimulation” value is given as 15%.
Consider `COc1cc(O)c(CC=C(C)C)c(O)c1C(=O)/C=C/c1ccc(O)cc1` [Xanthohumol, xanthohumol], for which the IL-6 secretion entry in the assay with IL-6 [6] was “Significant decreases in IL-6 secretion”. Further, the remaining activity at 5 µg/mL at PKBγ was 104%; on PKCβII, 108%.
Regarding `CC(C)Cc1ccc(C(C)C(=O)O)cc1` (centres unmarked) [ibuprofen], in the assay on adiponectin [1] (setting [7]), the “% Stimulation” value was found to be 22%.
Take `CN(C)C(=N)N=C(N)N` [metformin]: the “serum glucose relative to the controls” value with db/db mice is on record as “decreased”.
For the compound `C[C@]12C=CC(=O)C=C1CC[C@@H]1[C@@H]2[C@@H](O)C[C@@]2(C)[C@H]1CC[C@]2(O)C(=O)CO` [prednisolone], the arthritic index entry in the assay on DBA/J mice (10 mg/kg, days 30-42) is recorded as “Significant reductions”. Also, the “serum IL-6 levels” value with DBA/J mice (mouse, in vivo) is on record as “reached a statistical significance”.
`O=C(O)c1ccccc1O` [salicylic acid]: in the assay on IL-6 [4], the “% Inhibition of IL-6 secretion (maximum)” value is reported as 48* % and the “IL-6 Index” value is reported as 0.52*. Further, the “induction of adiponectin secretion” value in the assay with adiponectin [1] is “failed to induce adiponectin secretion”. Besides, the “Adiponectin Index” value in the assay with adiponectin [1] (at the concentration of maximum stimulation, indexed to LPS control) was found to be 0.96.
